Activity calls are given as the source filed them. The rule behind the calls is not given here.

Experiment [1] deals with 4T1. Description: Induction of apoptosis in mouse 4T1 cells assessed as rly apoptotic cells at 5 uM measured after 48 hrs in presence of ruxolitinib by annexin V-FITC/propidium iodide staining based flow cytometry (reference value: 1.12%). It is filed as functional. A general note: A flow cytometer gives signals particle by particle.
For experiment [2], the system named is MDA-MB-231. In words: Induction of apoptosis in human MDA-MB-231 cells assessed as viable cells at 2.5 uM measured after 48 hrs in presence of ruxolitinib by annexin V-FITC/propidium iodide staining based flow cytometry (reference value: 85.7%). The format is functional.
For experiment [3], the target named is T1, Tyrosine-protein kinase JAK2 (Homo sapiens, UniProt O60674). In words: Inhibition of JAK2 (unknown origin) assessed as inhibition rate at 10 uM incubated for 60 mins by microplate reader analysis relative to control.
Experiment [4] deals with MDA-MB-231. In words: Induction of apoptosis in human MDA-MB-231 cells assessed as viable cells at 2.5 uM measured after 48 hrs by annexin V-FITC/propidium iodide staining based flow cytometry (reference value: 85.7%). It is filed as functional.
The test system of experiment [5] is 4T1. Description: Induction of apoptosis in mouse 4T1 cells assessed as viable cells at 5 uM measured after 48 hrs in presence of ruxolitinib by annexin V-FITC/propidium iodide staining based flow cytometry (reference value: 89.5%). It is filed as functional.
For experiment [6], the system named is 4T1. In words: Induction of apoptosis in mouse 4T1 cells assessed as necrotic cells at 5 uM measured after 48 hrs in presence of ruxolitinib by annexin V-FITC/propidium iodide staining based flow cytometry (reference value: 4.35%). The format is functional.
Experiment [7] relates to 4T1. Description: Induction of apoptosis in mouse 4T1 cells assessed as late apoptotic cells at 5 uM measured after 48 hrs in presence of ruxolitinib by annexin V-FITC/propidium iodide staining based flow cytometry (reference value: 4.99%). It is filed as functional.
The subject of experiment [8] is MDA-MB-231. Description: Induction of apoptosis in human MDA-MB-231 cells assessed as necrotic cells at 10 uM measured after 48 hrs by annexin V-FITC/propidium iodide staining based flow cytometry (reference value: 5.38%). The format is functional.
Experiment [9] concerns the target T2, Protein deacetylase HDAC6 (Homo sapiens) (UniProt Q9UBN7).
T2 sequence (whole entry): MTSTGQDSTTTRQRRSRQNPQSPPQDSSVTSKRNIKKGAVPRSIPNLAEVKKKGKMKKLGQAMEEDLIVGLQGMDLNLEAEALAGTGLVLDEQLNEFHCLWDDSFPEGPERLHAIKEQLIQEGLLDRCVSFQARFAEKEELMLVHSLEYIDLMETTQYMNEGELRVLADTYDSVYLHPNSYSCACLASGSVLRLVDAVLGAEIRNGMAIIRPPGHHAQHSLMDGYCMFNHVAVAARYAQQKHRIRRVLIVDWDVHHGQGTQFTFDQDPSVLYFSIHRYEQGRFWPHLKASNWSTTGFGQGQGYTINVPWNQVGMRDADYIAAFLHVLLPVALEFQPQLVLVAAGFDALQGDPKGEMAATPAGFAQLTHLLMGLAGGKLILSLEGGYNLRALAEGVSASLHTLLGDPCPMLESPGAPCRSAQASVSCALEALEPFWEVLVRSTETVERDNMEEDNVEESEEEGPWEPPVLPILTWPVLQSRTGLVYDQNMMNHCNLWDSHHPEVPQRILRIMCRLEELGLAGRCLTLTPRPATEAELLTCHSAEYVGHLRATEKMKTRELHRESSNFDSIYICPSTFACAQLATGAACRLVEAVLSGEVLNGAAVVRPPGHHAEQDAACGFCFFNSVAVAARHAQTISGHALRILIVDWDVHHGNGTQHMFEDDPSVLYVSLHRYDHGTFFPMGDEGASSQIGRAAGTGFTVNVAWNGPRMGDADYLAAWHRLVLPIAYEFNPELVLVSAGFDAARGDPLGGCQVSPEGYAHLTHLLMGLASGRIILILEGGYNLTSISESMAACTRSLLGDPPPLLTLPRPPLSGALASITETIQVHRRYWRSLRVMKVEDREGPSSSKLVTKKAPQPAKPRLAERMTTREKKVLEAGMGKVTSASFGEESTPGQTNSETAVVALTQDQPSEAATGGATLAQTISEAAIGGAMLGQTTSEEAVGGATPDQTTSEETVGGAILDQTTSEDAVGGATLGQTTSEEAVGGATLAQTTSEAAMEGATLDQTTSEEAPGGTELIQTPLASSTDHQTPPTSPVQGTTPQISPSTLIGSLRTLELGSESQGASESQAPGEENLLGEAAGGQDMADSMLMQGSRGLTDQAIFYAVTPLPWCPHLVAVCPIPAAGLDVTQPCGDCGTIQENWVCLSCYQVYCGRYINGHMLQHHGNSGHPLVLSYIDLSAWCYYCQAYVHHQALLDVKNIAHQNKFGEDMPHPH
In words: Inhibition of HDAC6 (unknown origin) at 10 uM incubated for 60 min by microplate reader analysis relative to control.

In experiment [10] the test system is 4T1. Description: Induction of apoptosis in mouse 4T1 cells assessed as viable cells at 10 uM measured after 48 hrs by annexin V-FITC/propidium iodide staining based flow cytometry (reference value: 89.5%). It is filed as functional.
For experiment [11], the system named is MDA-MB-231. The format is functional, Mus musculus. The note with it: dose 100 mg/kg; time 14 day.
Experiment [12] deals with 4T1. In words: Induction of apoptosis in mouse 4T1 cells assessed as early apoptotic cells at 10 uM measured after 48 hrs by annexin V-FITC/propidium iodide staining based flow cytometry (reference value: 1.12%). It is filed as functional.
Experiment [13] has as its system MDA-MB-231. In words: Induction of apoptosis in human MDA-MB-231 cells assessed as early apoptotic cells at 10 uM measured after 48 hrs by annexin V-FITC/propidium iodide staining based flow cytometry (reference value: 3.09%). The format is functional.
Experiment [14] has as its system 4T1. In words: Induction of apoptosis in mouse 4T1 cells assessed as necrotic cells at 10 uM measured after 48 hrs by annexin V-FITC/propidium iodide staining based flow cytometry (reference value: 4.35%). The format is functional.
Experiment [15] deals with 4T1. In words: Induction of apoptosis in mouse 4T1 cells assessed as late apoptotic cells at 10 uM measured after 48 hrs by annexin V-FITC/propidium iodide staining based flow cytometry (reference value: 4.99%). It is filed as functional.
For experiment [16], the target named is T3, Protein deacetylase HDAC6 (Homo sapiens, UniProt Q9UBN7).
T3 sequence (Q9UBN7 whole entry): T2 sequence (whole entry)
Description: Inhibition of HDAC6 (unknown origin) incubated for 60 mins by microplate reader analysis.

In experiment [17] the target is Tyrosine-protein kinase JAK1 (Homo sapiens, UniProt P23458). Description: Inhibition of JAK1 (unknown origin) preincubated for 60 mins followed by reagent A addition and measured after 60 mins in presence of ATP by using microplate reader method.
The target of experiment [18] is T1, Tyrosine-protein kinase JAK2. In words: Inhibition of JAK2 (unknown origin) preincubated for 60 mins followed by reagent A addition and measured after 60 mins in presence of ATP by using microplate reader method.
Another experiment relates to CAL-51. Description: cells. The note with it: Homo sapiens, CAL-51, 72 h. It is filed as functional, cell-based.
Experiment [19] deals with 4T1. In words: cells. The format is functional, cell-based. Particulars: Mus musculus, 4T1, 72 h.
Another experiment concerns MDA-MB-468. Description: cells. The format is functional, cell-based. Particulars: Homo sapiens, MDA-MB-468, 72 h.
The target of another experiment is Histone deacetylase 1 (Homo sapiens, UniProt Q13547). Description: Inhibition of HDAC1 (unknown origin) incubated for 60 mins using microplate reader analysis.
Experiment [20] deals with MDA-MB-231. In words: cells. It is filed as functional, cell-based. The note with it: Homo sapiens, MDA-MB-231, 72 h.
Experiment [21] concerns the target Non-receptor tyrosine-protein kinase TYK2 (Homo sapiens, UniProt P29597). In words: Inhibition of TYK2 (unknown origin) incubated for 40 min in presence of ATP by microplate reader analysis.
The test system of the next experiment is BT-549. In words: cells. It is filed as functional, cell-based. The note with it: Homo sapiens, BT-549, 72 h.
The target in experiment [22] is T4, Tyrosine-protein kinase JAK3 (Homo sapiens, UniProt P52333).
T4 sequence (P52333 whole entry): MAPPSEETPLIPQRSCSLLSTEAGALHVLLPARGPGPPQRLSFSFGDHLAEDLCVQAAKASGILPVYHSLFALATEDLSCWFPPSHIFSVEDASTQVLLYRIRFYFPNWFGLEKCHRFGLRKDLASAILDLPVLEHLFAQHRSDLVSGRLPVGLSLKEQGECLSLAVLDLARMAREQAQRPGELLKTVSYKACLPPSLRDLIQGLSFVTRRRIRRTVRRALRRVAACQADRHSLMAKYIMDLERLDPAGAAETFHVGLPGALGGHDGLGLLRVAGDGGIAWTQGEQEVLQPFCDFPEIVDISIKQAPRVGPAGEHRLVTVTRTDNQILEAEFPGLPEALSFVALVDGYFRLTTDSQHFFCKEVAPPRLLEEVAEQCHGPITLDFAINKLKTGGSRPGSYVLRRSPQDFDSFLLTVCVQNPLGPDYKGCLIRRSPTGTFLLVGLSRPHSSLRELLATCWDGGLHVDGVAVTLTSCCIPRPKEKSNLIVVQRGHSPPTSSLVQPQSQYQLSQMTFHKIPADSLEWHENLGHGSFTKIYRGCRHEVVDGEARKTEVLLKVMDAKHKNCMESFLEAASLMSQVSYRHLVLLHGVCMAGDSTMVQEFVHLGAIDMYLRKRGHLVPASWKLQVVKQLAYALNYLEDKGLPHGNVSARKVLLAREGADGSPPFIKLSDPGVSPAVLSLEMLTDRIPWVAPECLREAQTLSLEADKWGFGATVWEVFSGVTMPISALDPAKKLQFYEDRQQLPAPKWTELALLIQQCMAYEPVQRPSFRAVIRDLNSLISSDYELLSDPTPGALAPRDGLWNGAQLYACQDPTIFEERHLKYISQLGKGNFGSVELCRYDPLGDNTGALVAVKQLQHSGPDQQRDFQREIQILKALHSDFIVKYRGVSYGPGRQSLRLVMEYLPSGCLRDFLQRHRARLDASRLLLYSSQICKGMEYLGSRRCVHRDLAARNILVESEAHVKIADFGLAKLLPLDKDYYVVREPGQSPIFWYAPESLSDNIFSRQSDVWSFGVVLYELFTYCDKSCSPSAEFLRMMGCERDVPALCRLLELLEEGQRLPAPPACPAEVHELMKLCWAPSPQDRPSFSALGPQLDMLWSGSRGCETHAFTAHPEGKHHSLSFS
In words: Inhibition of JAK3 (unknown origin) preincubated for 60 mins followed by reagent A addition and measured after 60 mins in presence of ATP by using microplate reader method.

T1 sequence (O60674 whole entry): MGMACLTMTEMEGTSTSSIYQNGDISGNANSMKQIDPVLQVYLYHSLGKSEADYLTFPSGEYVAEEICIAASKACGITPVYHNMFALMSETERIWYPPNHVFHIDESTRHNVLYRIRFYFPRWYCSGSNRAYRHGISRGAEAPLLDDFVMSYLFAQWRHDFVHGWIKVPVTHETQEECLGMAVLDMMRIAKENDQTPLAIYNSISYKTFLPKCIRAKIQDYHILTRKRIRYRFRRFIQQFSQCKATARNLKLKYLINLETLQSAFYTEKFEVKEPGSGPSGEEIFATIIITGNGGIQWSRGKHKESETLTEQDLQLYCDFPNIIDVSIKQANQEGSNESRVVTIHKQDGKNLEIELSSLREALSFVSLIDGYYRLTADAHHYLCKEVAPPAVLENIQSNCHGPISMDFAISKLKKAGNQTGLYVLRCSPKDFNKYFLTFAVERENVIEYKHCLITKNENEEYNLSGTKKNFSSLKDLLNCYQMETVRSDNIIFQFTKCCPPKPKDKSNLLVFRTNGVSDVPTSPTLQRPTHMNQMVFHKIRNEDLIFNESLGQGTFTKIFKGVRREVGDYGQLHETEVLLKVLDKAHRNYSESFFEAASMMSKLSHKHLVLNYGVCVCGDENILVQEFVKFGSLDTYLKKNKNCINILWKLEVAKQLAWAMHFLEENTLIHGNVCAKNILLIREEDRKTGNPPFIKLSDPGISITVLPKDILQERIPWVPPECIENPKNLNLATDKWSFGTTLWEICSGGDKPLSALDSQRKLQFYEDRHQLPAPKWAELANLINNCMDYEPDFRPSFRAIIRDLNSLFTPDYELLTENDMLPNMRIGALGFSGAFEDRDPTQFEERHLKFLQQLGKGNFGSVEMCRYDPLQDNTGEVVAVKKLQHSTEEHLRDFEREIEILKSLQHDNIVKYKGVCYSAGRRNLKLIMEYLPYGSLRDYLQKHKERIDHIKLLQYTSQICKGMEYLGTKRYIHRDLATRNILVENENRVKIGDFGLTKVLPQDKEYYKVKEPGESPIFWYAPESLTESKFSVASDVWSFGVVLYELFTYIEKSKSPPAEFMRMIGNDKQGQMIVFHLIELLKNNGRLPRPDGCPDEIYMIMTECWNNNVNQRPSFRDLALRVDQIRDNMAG
Sequence of Non-receptor tyrosine-protein kinase TYK2 (P29597 whole entry): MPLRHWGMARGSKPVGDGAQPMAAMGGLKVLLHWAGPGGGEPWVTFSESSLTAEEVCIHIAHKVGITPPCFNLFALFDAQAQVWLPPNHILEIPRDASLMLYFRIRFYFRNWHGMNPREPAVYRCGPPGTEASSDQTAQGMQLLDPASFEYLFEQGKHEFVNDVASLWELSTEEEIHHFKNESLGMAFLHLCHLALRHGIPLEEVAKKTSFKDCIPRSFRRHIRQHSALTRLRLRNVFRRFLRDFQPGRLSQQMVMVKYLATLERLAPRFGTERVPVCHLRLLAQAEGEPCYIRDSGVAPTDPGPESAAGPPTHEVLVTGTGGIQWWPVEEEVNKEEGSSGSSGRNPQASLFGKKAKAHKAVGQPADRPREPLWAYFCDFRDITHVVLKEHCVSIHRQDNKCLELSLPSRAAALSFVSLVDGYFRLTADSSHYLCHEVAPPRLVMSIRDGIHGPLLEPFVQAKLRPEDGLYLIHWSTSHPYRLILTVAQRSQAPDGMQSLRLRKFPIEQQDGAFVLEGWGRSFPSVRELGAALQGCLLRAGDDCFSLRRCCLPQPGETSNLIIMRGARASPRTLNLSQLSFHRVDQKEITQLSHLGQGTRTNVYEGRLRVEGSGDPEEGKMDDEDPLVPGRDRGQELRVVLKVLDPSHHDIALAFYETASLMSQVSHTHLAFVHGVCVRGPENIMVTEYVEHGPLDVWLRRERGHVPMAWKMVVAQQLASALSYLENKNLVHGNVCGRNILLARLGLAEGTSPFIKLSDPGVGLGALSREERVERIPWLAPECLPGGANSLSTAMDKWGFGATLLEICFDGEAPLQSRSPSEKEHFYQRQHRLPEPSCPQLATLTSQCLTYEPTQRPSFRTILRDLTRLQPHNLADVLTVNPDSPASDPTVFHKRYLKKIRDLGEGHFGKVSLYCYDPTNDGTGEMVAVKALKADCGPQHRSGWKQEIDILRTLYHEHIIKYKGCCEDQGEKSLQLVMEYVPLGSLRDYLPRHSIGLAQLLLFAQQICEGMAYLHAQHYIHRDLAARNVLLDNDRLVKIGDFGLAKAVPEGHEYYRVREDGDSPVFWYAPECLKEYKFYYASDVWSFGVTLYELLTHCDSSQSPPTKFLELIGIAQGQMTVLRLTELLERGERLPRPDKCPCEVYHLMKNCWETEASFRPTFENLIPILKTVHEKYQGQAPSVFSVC
Sequence of Tyrosine-protein kinase JAK1 (P23458 whole entry): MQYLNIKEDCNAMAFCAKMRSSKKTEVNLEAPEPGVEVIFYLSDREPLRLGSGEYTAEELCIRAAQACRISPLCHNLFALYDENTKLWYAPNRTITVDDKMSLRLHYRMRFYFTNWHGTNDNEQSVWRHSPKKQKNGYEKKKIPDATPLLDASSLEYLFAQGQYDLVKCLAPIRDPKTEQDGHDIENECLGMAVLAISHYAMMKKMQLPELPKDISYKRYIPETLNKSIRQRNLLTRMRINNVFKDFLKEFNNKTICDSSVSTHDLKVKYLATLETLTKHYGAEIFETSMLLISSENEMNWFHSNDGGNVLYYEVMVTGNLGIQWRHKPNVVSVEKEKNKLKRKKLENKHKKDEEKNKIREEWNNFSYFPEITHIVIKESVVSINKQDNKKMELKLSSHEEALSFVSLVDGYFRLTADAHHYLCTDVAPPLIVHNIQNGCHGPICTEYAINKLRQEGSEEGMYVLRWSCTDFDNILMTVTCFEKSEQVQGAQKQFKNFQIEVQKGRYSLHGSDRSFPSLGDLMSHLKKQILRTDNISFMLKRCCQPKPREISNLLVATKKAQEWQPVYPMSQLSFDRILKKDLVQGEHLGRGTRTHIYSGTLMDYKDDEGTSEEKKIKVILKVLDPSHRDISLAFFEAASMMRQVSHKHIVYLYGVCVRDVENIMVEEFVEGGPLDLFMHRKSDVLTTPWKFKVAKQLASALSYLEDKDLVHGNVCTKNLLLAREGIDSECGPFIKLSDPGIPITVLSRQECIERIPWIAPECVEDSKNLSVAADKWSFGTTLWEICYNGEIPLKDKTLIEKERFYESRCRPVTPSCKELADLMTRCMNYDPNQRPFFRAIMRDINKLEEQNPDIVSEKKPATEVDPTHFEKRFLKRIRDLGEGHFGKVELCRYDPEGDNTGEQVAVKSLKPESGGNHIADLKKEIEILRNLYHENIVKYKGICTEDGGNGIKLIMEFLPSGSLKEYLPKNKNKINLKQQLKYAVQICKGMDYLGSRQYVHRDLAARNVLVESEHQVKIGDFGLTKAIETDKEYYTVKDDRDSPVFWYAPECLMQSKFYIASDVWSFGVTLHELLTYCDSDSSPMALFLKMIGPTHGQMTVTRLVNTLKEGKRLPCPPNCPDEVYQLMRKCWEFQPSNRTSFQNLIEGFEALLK
Sequence of Histone deacetylase 1 (Q13547 whole entry): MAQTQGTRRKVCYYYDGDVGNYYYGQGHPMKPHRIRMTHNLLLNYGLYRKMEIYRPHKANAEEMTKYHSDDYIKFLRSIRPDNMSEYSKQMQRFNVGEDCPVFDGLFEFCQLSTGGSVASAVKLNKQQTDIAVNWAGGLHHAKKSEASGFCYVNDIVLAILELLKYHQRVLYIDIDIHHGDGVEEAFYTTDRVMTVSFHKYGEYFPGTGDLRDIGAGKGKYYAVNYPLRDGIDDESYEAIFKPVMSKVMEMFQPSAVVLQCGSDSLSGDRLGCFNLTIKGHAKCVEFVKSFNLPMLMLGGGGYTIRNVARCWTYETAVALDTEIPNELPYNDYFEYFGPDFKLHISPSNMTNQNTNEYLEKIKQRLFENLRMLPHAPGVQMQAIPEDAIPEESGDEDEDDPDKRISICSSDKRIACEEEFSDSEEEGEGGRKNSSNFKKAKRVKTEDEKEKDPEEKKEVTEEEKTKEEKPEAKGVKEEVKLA

`O=C(CCCCCCC(=O)Nc1ccccc1)NO` [VORINOSTAT]: the Activity with 4T1 [1] is 28.6%; in the experiment with MDA-MB-231 [2], 25.8%; in the experiment with MDA-MB-231 [4], 57.3%; with 4T1 [5], 65.2%; with 4T1 [6], 1.23%; with 4T1 [7], 4.98%. The inhibition entry in [3] was “inactive”.
On to `N#CC[C@H](C1CCCC1)n1cc(-c2ncnc3[nH]ccc23)cn1` [RUXOLITINIB], for which the Activity is reported as 6.09% in the experiment on MDA-MB-231 [8]; 89% with 4T1 [10]; 2.04% in the experiment on 4T1 [12]; 6.09% in the experiment with MDA-MB-231 [13]; 4.98% with 4T1 [14]; 4% with 4T1 [15]. Besides, the inhibition result in experiment [9] was “inactive”. In the experiment with MDA-MB-231 [11], this molecule registered a TGI of 12%.
One may read the IC50 as the midpoint of a concentration-inhibition curve. Regarding `O=C(CCCCCCn1cc(Nc2ncc3ccn(Cc4cccc(F)c4)c3n2)cn1)NO`, the IC50 is 14.7 nM in [16]; 19.9 nM in [17]; 15.7 nM in experiment [18]; 1280 nM in the experiment on CAL-51; 3720 nM in the experiment on 4T1 [19]; 2450 nM in the experiment on MDA-MB-468. Moreover, the IC50 on Histone deacetylase 1 amounted to 92.1 nM; with MDA-MB-231 [20], 3940 nM; in [21], 21.7 nM; with BT-549, 3020 nM; in experiment [22], 16.1 nM.

Values taken from ChEMBL document CHEMBL5038570, “Discovery of Novel Pyrrolo[2,3-d]pyrimidine-based Derivatives as Potent JAK/HDAC Dual Inhibitors for the Treatment of Refractory Solid Tumors” (J Med Chem, 2022).
